Test results reported in patent US20220009920A1 (GB005, Inc., priority 2020, published 2022).

Key:
[1] = target: T1, BTK (Homo sapiens, UniProt Q06187); experiment: Assay to determine activity against BTK; assay type: biochemical; details: 1 mM ATP, 2 nM BTK, 90 minutes at room temperature
T1 construct: purchased Cama
Experimental: Solutions of compounds (test or control) in DMSO were prepared at the desired concentrations, and serially diluted to 11 concentrations by 3-fold dilution in 384pp-plate using TECAN EVO200. 20 nL of stock were transferred to 384 plate using Echo550. DMSO was used as vehicle control.
(BTK was obtained from Cama; FLPeptide2 was obtained from PerkinElmer and Ibrutinib was obtained from Selleck.) 5 μL of ATP solution were added to each well, followed by addition of 15 μL of BTK solution to initiate the reaction. (Note the final volume of each well was 20 μL containing MgCl2 (10 mM), Brij-35 (0.01%), DTT (2 mM), BSA (0.05%), EGTA (1 mM), HEPE (pH7.5) (50 mM), FLPeptide (1.5 uM), ATP (1 mM) and BTK (2 nM).
The plates were incubated at room temperature for 90 minutes and then stopping buffer added (75 μL, containing 0.5 M EDTA) to terminate the reaction. Samples from each well were analyzed using EZ reader. The % remaining activity was calculated using read conversion ratio (CR) according to the equation: […]
XLFit (equation 201) was used to calculate IC50's by floating both bottom and top.

[2] = tested on: BTK in RAMOS B cells; experiment: Assay to determine BTK activity in RAMOS B cells (anti-IgM, FLIPR Calcium 6); assay type: cell-based; details: anti-IgM EC80, calcium readout
Experimental: On the day before assay, Ramos B cells were plated in plating medium (RPMI1640 medium containing 1% FBS and 1× pencillin-streptomycin). On the day of the assay, 2× dye solution was prepared following the manual of the FLIRP Calcium 6 Assay Kit: Dilute the dye with assay buffer (20 mM HEPES in IX HBSS, pH7.4); Add probenecid to the final concentration of 5 mM; vortex vigorously for 1-2 minutes. Cells were collected by centrifuging, and the pellet was re-suspended in plating medium. After counting, cells were re-suspended at a density of 3×10^6/ml in plating medium. Equal volume of 2× dye solution was added to the cell suspension. Cells were then plated at 20 μl/well into a 384-well poly-D-lysine coated plate. Plate was centrifuged at 1000 rpm for 3 minutes and then incubated at 37° C. for 2 hours followed by an additional 15-minute incubation at 25° C. Compounds were prepared at 3× concentration in dilution buffer (20 mM HEPES and 0.1% BSA in 1×HBSS, pH 7.4). Serially diluted compound was transferred from source plate to a 384-well compound plate by using an Echo 550 (Labcyte). 20 μl/well compound dilution buffer was added to the compound plate and mixed on plate shaker for 2 mins. 4× EC80 of Anti-IgM (Jackson ImmunoResearch) was prepared in dilution buffer and 20 μl/well was added to a new 384-well compound plate. After 60 mins of incubation at 25° C. in the dark; cell plate, compound plate containing 4×EC80 of anti-IgM and FLIPR tips were placed into FLIPR (Molecular Devices). 10 ul/well of 4×EC80 anti-IgM was transferred to the cell plate by FLIPR. Plates were read for 160 sec with 1 sec interval.

T1 sequence (Q06187 whole entry): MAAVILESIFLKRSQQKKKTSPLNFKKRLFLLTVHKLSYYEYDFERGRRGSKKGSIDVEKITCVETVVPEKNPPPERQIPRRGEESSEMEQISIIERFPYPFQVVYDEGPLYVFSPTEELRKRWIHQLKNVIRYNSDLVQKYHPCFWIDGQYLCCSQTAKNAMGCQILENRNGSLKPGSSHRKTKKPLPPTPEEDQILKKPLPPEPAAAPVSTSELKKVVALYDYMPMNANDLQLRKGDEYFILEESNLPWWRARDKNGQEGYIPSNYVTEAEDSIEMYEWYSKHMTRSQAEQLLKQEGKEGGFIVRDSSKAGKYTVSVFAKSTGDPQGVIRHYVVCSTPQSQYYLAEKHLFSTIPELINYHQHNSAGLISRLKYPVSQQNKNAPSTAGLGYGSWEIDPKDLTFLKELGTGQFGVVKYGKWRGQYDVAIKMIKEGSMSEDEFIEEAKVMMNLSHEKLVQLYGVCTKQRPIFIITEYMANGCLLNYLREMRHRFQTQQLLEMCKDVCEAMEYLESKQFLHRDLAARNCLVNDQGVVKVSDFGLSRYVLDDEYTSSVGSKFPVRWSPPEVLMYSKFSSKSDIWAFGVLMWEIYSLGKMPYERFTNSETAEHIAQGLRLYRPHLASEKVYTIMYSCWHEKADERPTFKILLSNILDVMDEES

## C=CC(=O)N[C@H]1CCCN(c2ncc(C(N)=O)c3[nH]c4c(c23)CCCC4)C1 [Compound 3-4, (S)-1-(3-acrylamidopiperidin-1-yl)-6,7,8,9-tetrahydro-5H-pyrido[4,3-b]indole-4-carboxamide]
[1]
  IC50: ≥ 0.1 µM
[2]; Homo sapiens, Ramos
  IC50: ≥ 0.1 µM

## C=CC(=O)N1CCc2c(cccc2-c2c(C)nc(C(N)=O)c3[nH]c4c(c23)CCCC4)C1 (single isomer, unassigned) [Compound 2-7, 4-(2-acryloyl-1,2,3,4-tetrahydroisoquinolin-5-yl)-3-methyl-6,7,8,9-tetrahydro-5H-pyrido[3,4-b]indole-1-carboxamide]
[1]
  IC50: ≥ 0.1 µM
[2]
  IC50: ≥ 0.1 µM

## CC#CC(=O)N[C@H]1CCCC(c2c(F)cc(C(N)=O)c3[nH]c4c(c23)CCC4)C1 (single isomer, unassigned) [Compound 10-5]
[1]
  IC50: < 0.01 µM
[2]
  IC50: < 0.01 µM

## C=CC(=O)N1CCCC(c2ncc(C(N)=O)c3[nH]c4c(c23)CCCC4)C1 (centres unmarked) [Compound 3-3, 1-(1-acryloylpiperidin-3-yl)-6,7,8,9-tetrahydro-5H-pyrido[4,3-b]indole-4-carboxamide]
[1]
  IC50: < 0.01 µM
[2]; Homo sapiens, Ramos
  IC50: < 0.01 µM

## C=CC(=O)N1CCC=C(c2c(F)cc(C(N)=O)c3[nH]c4c(c23)CC2(CC4)CC2)C1 [Compound 7-11, 5-(1-acryloyl-1,2,5,6-tetrahydropyridin-3-yl)-6-fluoro-1,2,4,9-tetrahydrospiro[carbazole-3,1′-cyclopropane]-8-carboxamide]
[1]
  IC50: < 0.01 µM
[2]; Homo sapiens, Ramos
  IC50: < 0.01 µM

## C=CC(=O)N1CCc2c(cccc2-c2c(F)cc(C(N)=O)c3[nH]c4c(c23)CC2(CCC2)CC4)C1 [Compound 7-13, 5-(2-acryloyl-1,2,3,4-tetrahydroisoquinolin-5-yl)-6-fluoro-1,2,4,9-tetrahydrospiro[carbazole-3,1′-cyclobutane]-8-carboxamide]
[1]
  IC50: 0.01 to 0.1 µM
[2]; Homo sapiens, Ramos
  IC50: ≥ 0.1 µM

## C=CC(=O)N1CCc2c(cccc2-c2c(F)cc(C(N)=O)c3[nH]c4c(c23)CC2(CCCC2)CC4)C1 [Compound 7-14, 5-(2-acryloyl-1,2,3,4-tetrahydroisoquinolin-5-yl)-6-fluoro-1,2,4,9-tetrahydrospiro[carbazole-3,1′-cyclopentane]-8-carboxamide]
[1]
  IC50: ≥ 0.1 µM
[2]; Homo sapiens, Ramos
  IC50: ≥ 0.1 µM

## CC#CC(=O)N[C@H]1C[C@H](F)CN(c2c(F)cc(C(N)=O)c3[nH]c4c(c23)CC2(CC4)CC2)C1 [Compound 7-23, 5-((3S,5S)-3-(but-2-ynamido)-5-fluoropiperidin-1-yl)-6-fluoro-1,2,4,9-tetrahydrospiro[carbazole-3,1′-cyclopropane]-8-carboxamide]
[1]
  IC50: < 0.01 µM
[2]; Homo sapiens, Ramos
  IC50: < 0.01 µM

## CC#CC(=O)N[C@H]1CCCN(c2c(F)cc(C(N)=O)c3[nH]c4c(c23)CCN(C)CC4)C1 [Compound 9-5, (S)-10-(3-(but-2-ynamido)piperidin-1-yl)-9-fluoro-3-methyl-1,2,3,4,5,6-hexahydroazepino[4,5-b]indole-7-carboxamide]
[1]
  IC50: < 0.01 µM
[2]; Homo sapiens, Ramos
  IC50: 0.01 to 0.1 µM

## C=CC(=O)N1CCc2c(cccc2-c2c(C)nc(C(N)=O)c3[nH]c4c(c23)CCCC4)C1 (single isomer, unassigned) [Compound 2-6, 4-(2-acryloyl-1,2,3,4-tetrahydroisoquinolin-5-yl)-3-methyl-6,7,8,9-tetrahydro-5H-pyrido[3,4-b]indole-1-carboxamide]
[1]
  IC50: < 0.01 µM
[2]
  IC50: 0.01 to 0.1 µM

## C=CC(=O)N1CCC[C@H](c2c(F)cc(C(N)=O)c3[nH]c4c(c23)CCC4)C1 [Compound 10-1, (R)-8-(1-acryloylpiperidin-3-yl)-7-fluoro-1,2,3,4-tetrahydrocyclopenta[b]-indole-5-carboxamide]
[1]
  IC50: < 0.01 µM
[2]; Homo sapiens, Ramos
  IC50: < 0.01 µM

## C=CC(=O)N1CCc2c(cccc2-c2cnc(C(N)=O)c3[nH]c4c(c23)CCCC4)C1 [Compound 2-1, 4-(2-acryloyl-1,2,3,4-tetrahydroisoquinolin-5-yl)-6,7,8,9-tetrahydro-5H-pyrido[3,4-b]indole-1-carboxamide]
[1]
  IC50: 0.01 to 0.1 µM
[2]; Homo sapiens, Ramos
  IC50: 0.01 to 0.1 µM

## C=CC(=O)N1CCc2c(cccc2-c2cnc(C(N)=O)c3[nH]c4c(c23)CC(F)(F)CC4)C1 [Compound 7-29, 4-(2-acryloyl-1,2,3,4-tetrahydroisoquinolin-5-yl)-6,6-difluoro-6,7,8,9-tetrahydro-5H-pyrido[3,4-b]indole-1-carboxamide]
[1]
  IC50: 0.01 to 0.1 µM
[2]; Homo sapiens, Ramos
  IC50: 0.01 to 0.1 µM

## C=CC(=O)N1CCc2c(cccc2-c2c(F)cc(C(N)=O)c3[nH]c4c(c23)CC2(CCCO2)CC4)C1 (centres unmarked) [Compound 7-16, 5-(2-acryloyl-1,2,3,4-tetrahydroisoquinolin-5-yl)-6-fluoro-1,2,4,4′,5′,9-hexahydro-3′H-spiro[carbazole-3,2′-furan]-8-carboxamide]
[1]
  IC50: < 0.01 µM
[2]
  IC50: 0.01 to 0.1 µM

## C=CC(=O)N1CCc2c(cccc2-c2c(F)cc(C(N)=O)c3[nH]c4c(c23)CS(=O)(=O)CC4)C1 (single isomer, unassigned) [Compound 9-3, 9-(2-acryloyl-1,2,3,4-tetrahydroisoquinolin-5-yl)-8-fluoro-1,3,4,5-tetrahydrothiopyrano[4,3-b]indole-6-carboxamide 2,2-dioxide]
[1]
  IC50: < 0.01 µM
[2]
  IC50: 0.01 to 0.1 µM

## C=CC(=O)N1CCc2c(cccc2-c2c(C)nc(C(N)=O)c3[nH]c4c(c23)CC2(CC4)CC2)C1 [Compound 7-26, 4′-(2-acryloyl-1,2,3,4-tetrahydroisoquinolin-5-yl)-3′-methyl-5′,7′,8′,9′-tetrahydrospiro[cyclopropane-1,6′-pyrido[3,4-b]indole]-1′-carboxamide]
[1]
  IC50: ≥ 0.1 µM
[2]; Homo sapiens, Ramos
  IC50: ≥ 0.1 µM

## C=CC(=O)N1CCC=C(c2cnc(C(N)=O)c3[nH]c4c(c23)CC(F)(F)CC4)C1 [Compound 2-9, 4-(1-acryloyl-1,2,5,6-tetrahydropyridin-3-yl)-6,6-difluoro-6,7,8,9-tetrahydro-5H-pyrido[3,4-b]indole-1-carboxamide]
[1]
  IC50: 0.01 to 0.1 µM
[2]; Homo sapiens, Ramos
  IC50: 0.01 to 0.1 µM

## C=CC(=O)Nc1cccc(-c2c(F)cc(C(N)=O)c3[nH]c4c(c23)CCCCC4)c1 [Compound 5-3, 1-(3-acrylamidophenyl)-2-fluoro-5,6,7,8,9,10-hexahydrocyclohepta[b]indole-4-carboxamide]
[1]
  IC50: 0.01 to 0.1 µM
[2]; Homo sapiens, Ramos
  IC50: 0.01 to 0.1 µM

## CC#CC(=O)N[C@H]1C[C@H](F)CN(c2c(F)cc(C(N)=O)c3[nH]c4c(c23)CCC4)C1 [Compound 10-8, 8-((3S,5S)-3-(but-2-ynamido)-5-fluoropiperidin-1-yl)-7-fluoro-1,2,3,4-tetrahydrocyclopenta[b]indole-5-carboxamide]
[1]
  IC50: < 0.01 µM
[2]; Homo sapiens, Ramos
  IC50: < 0.01 µM

## C=CC(=O)N1CCc2c(cccc2-c2c(F)cc(C(N)=O)c3[nH]c4c(c23)CCCCC4)C1 (single isomer, unassigned) [Compound 5-1, 2-fluoro-1-[2-(prop-2-enoyl)-3,4-dihydro-1H-isoquinolin-5-yl]-5H,6H,7H,8H,9H,10H-cyclohepta[b]indole-4-carboxamide]
[1]
  IC50: 0.01 to 0.1 µM
[2]
  IC50: 0.01 to 0.1 µM

## CC#CC(=O)N[C@H]1CCCC(c2c(F)cc(C(N)=O)c3[nH]c4c(c23)CCC4)C1 (single isomer, unassigned) [Compound 10-6]
[1]
  IC50: 0.01 to 0.1 µM
[2]
  IC50: ≥ 0.1 µM

## C=CC(=O)N1CCc2c(cccc2-c2c(F)cc(C(N)=O)c3[nH]c4c(c23)C[S+]([O-])CC4)C1 (single isomer, unassigned) [Compound 9-1, 9-(2-acryloyl-1,2,3,4-tetrahydroisoquinolin-5-yl)-8-fluoro-1,3,4,5-tetrahydrothiopyrano[4,3-b]indole-6-carboxamide 2-oxide]
[1]
  IC50: < 0.01 µM
[2]; Homo sapiens, Ramos
  IC50: ≥ 0.1 µM

## C=CC(=O)N1CCC=C(c2cnc(C(N)=O)c3[nH]c4c(c23)CCCC4)C1 [Compound 2-2]
[1]
  IC50: 0.01 to 0.1 µM
[2]; Homo sapiens, Ramos
  IC50: 0.01 to 0.1 µM

## C=CC(=O)N1CCCC(c2c(F)cc(C(N)=O)c3[nH]c4c(c23)CCCCC4)C1 (single isomer, unassigned) [Compound 5-7]
[1]
  IC50: ≥ 0.1 µM
[2]
  IC50: ≥ 0.1 µM

## C=CC(=O)N1CCC=C(c2ccc(C(N)=O)c3[nH]c4c(c23)CSCC4)C1 [Compound 8-1, 9-(1-acryloyl-1,2,5,6-tetrahydropyridin-3-yl)-1,3,4,5-tetrahydrothiopyrano-[4,3-b]indole-6-carboxamide]
[1]
  IC50: < 0.01 µM
[2]; Homo sapiens, Ramos
  IC50: < 0.01 µM
